Here are results for 9 molecules from ChEMBL document CHEMBL5634099, “Pyrrole-thiazolidinone hybrids as a new structural class of broad-spectrum anti-infectives” (Eur J Med Chem, 2023).

Each structure is given as a SMILES string. Values after ≈ are worked out from the molar mass of the structure shown.

Common to all, as to assay type: functional
Assay [1] deals with Acinetobacter baumannii. Briefly: Antibacterial activity against Acinetobacter baumannii BAA 1605 assessed as bacterial growth inhibition incubated for 16 to 18 hrs by CLSI based susceptibility testing method. The following applies: time 16-18 hrs.
Assay [2] deals with Mycolicibacterium fortuitum. In words: Antimycobacterial activity against Mycobacterium fortuitum ATCC 6841 assessed as bacterial growth inhibition incubated for 7 days by resazurin dye based assay. Particulars: ATCC 6841, 168 h, time 7 day. For orientation: Alamar Blue is a resazurin reagent that responds to reducing activity.
In assay [3] the test system is Pseudomonas aeruginosa. In words: Antibacterial activity against Pseudomonas aeruginosa ATCC 27853 assessed as bacterial growth inhibition incubated for 16 to 18 hrs by CLSI based susceptibility testing method. Particulars: time 16-18 hrs.
Assay [4] deals with Mycobacteroides abscessus. In words: Antimycobacterial activity against Mycobacterium abscessus ATCC 19977 assessed as bacterial growth inhibition incubated for 7 days by resazurin dye based assay. The following applies: ATCC 19977, 168 h, time 7 day.
Assay [5] concerns Staphylococcus aureus. Briefly: Antibacterial activity against Staphylococcus aureus ATCC 29213 assessed as bacterial growth inhibition incubated for 16 to 18 hrs by CLSI based susceptibility testing method. The following applies: time 16-18 hrs.
For assay [6], the system named is Mycobacterium tuberculosis. In words: Antimycobacterial activity against Mycobacterium tuberculosis H37Rv ATCC 27294 assessed as bacterial growth inhibition incubated for 7 days by resazurin dye based assay. The following applies: H37Rv ATCC 27294, 168 h, time 7 day.
The test system of assay [7] is Klebsiella pneumoniae. In words: Antibacterial activity against Klebsiella pneumoniae BAA 1705 assessed as bacterial growth inhibition incubated for 16 to 18 hrs by CLSI based susceptibility testing method. The following applies: time 16-18 hrs.
Assay [8] has as its system Escherichia coli. Briefly: Antibacterial activity against Escherichia coli ATCC 25922 assessed as bacterial growth inhibition incubated for 16 to 18 hrs by CLSI based susceptibility testing method. The following applies: time 16-18 hrs.
In assay [9] the test system is Mycobacteroides chelonae. In words: Antimycobacterial activity against Mycobacteroides chelonae ATCC 35752 assessed as bacterial growth inhibition incubated for 7 days by resazurin dye based assay. Particulars: ATCC 35752, 168 h, time 7 day.

Broadly, the MIC is the least concentration at which growth counts as inhibited. For `Cc1cc(/C=C2\S/C(=N/c3nccs3)NC2=O)c(C)n1-c1ccc(C#N)c(Cl)c1`, the MIC in assay [1] was greater than 64 mg/L; in assay [2], greater than 64 mg/L; in [3], greater than 64 mg/L; in assay [4] it was greater than 64 mg/L; in assay [5], greater than 64 mg/L; in assay [6] it was 16 mg/L (≈ 36.4 µM). Moreover, the MIC in assay [7], in assay [8] and in [9] was greater than 64 mg/L each time.
With `Cc1cc(/C=C2\S/C(=N/c3nccs3)NC2=O)c(C)n1-c1ccc([N+](=O)[O-])cc1`, the MIC in assay [1], in assay [2], in assay [3], in assay [4], in assay [5] and in assay [6] was greater than 64 mg/L throughout. The minimum inhibitory concentration (MIC) in assay [7], in assay [8] and in assay [9] was greater than 64 mg/L each time.
On to `COc1cccc(-n2c(C)cc(/C=C3\S/C(=N/c4nccs4)NC3=O)c2C)c1`, for which the MIC in assay [1] is greater than 64 mg/L; in assay [2], greater than 64 mg/L; in assay [3], greater than 64 mg/L; in assay [4], greater than 64 mg/L; in assay [5], 64 mg/L (≈ 156 µM); in assay [6] it was greater than 64 mg/L. Further, the MIC in assay [7], in assay [8] and in assay [9] was greater than 64 mg/L throughout.
Regarding `COc1ccc(-n2c(C)cc(/C=C3\S/C(=N/c4nccs4)NC3=O)c2C)cc1OC`, the minimal inhibitory concentration (MIC) was greater than 64 mg/L in assay [1]; greater than 64 mg/L in [2]; greater than 64 mg/L in [3]; greater than 64 mg/L in assay [4]; 4 mg/L (≈ 9.08 µM) in [5]; 8 mg/L (≈ 18.2 µM) in assay [6]. In addition, the minimal inhibitory concentration (MIC) in [7], in assay [8] and in [9] was greater than 64 mg/L in each case.
Turning to `COc1cccc(-n2c(C)cc(/C=C3\S/C(=N/c4nc(C)c(C)s4)NC3=O)c2C)c1`, the minimal inhibitory concentration (MIC) is greater than 64 mg/L in [1]; greater than 64 mg/L in assay [2]; greater than 64 mg/L in assay [3]; greater than 64 mg/L in [4]; greater than 64 mg/L in assay [5]; 2 mg/L (≈ 4.56 µM) in assay [6]. Further, the minimum inhibitory concentration (MIC) in [7], in assay [8] and in assay [9] was greater than 64 mg/L throughout.
Turning to `Cc1nc(/N=C2\NC(=O)/C(=C/c3cc(C)n(-c4ccc([N+](=O)[O-])cc4)c3C)S2)sc1C`, the minimum inhibitory concentration (MIC) in assay [1], in [2], in assay [3], in assay [4], in [5] and in assay [6] was greater than 64 mg/L in each case. For the same molecule, the MIC in assay [7], in assay [8] and in [9] was greater than 64 mg/L throughout.
For `Cc1nc(/N=C2\NC(=O)/C(=C/c3cc(C)n(-c4cccc(Cl)c4)c3C)S2)sc1C`, the minimal inhibitory concentration (MIC) in assay [1] is greater than 64 mg/L; in assay [2] it was greater than 64 mg/L; in assay [3] it was greater than 64 mg/L; in assay [4], greater than 64 mg/L; in [5] it was greater than 64 mg/L; in assay [6] it was 4 mg/L (≈ 9.03 µM). Besides, the minimum inhibitory concentration (MIC) in [7], in assay [8] and in assay [9] was greater than 64 mg/L in each case.
As to `Cc1nc(/N=C2\NC(=O)/C(=C/c3cc(C)n(-c4ccccc4Cl)c3C)S2)sc1C`, the minimal inhibitory concentration (MIC) in [1] is greater than 64 mg/L; in assay [2], greater than 64 mg/L; in assay [3] it was greater than 64 mg/L; in assay [4], greater than 64 mg/L; in assay [5] it was greater than 64 mg/L; in [6], 2 mg/L (≈ 4.51 µM). The MIC in [7], in assay [8] and in [9] was greater than 64 mg/L throughout.
Regarding `Cc1cc(/C=C2\S/C(=N/c3nccs3)NC2=O)c(C)n1-c1ccccc1Br`, the MIC in [1] is greater than 64 mg/L; in assay [2] it was greater than 64 mg/L; in assay [3], greater than 64 mg/L; in assay [4], greater than 64 mg/L; in assay [5], 4 mg/L (≈ 8.71 µM); in assay [6], 8 mg/L (≈ 17.4 µM). The minimum inhibitory concentration (MIC) in [7], in assay [8] and in [9] was greater than 64 mg/L throughout.
